Assay results published in paper PMC8645336, “Benchmarking a highly selective USP30 inhibitor for enhancement of mitophagy and pexophagy” (Life Science Alliance, 2021).

What was measured:
Assay in all cases: biochemical
Design in all cases: Ubiquigent DUB profiler selectivity panel, remaining enzyme activity as % of control
Settings in all cases: read-out: % of control remaining
[1] = target: T1, OTUD5 (p177S) (Homo sapiens, UniProt Q96G74)
T1 construct: phosphorylated S177
T1 sequence (Q96G74 1-571): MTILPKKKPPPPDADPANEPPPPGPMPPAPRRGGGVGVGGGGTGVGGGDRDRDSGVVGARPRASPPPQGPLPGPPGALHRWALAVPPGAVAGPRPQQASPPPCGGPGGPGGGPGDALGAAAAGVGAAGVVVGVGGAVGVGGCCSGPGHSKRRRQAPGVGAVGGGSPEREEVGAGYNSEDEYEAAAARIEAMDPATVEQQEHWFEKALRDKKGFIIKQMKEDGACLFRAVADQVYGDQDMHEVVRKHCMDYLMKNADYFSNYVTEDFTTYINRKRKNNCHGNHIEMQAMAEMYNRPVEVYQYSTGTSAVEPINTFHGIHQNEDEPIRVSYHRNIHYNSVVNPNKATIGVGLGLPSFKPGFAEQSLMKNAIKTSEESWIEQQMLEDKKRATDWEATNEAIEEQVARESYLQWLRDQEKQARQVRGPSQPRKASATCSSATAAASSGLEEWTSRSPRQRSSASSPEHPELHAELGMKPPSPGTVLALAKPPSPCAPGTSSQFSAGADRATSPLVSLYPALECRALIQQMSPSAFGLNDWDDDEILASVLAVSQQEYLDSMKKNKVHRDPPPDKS
Protocol: (§1) Previous work has reported IC50 values for a series of benzosulphonamide inhibitors, of which all those <1 μM were screened for selectivity, in comparison to three other USP family members ([20], [21]). We have selected one of these compounds (CMPD-39, Fig 1A) for a more rigorous test of selectivity provided by the Ubiquigent DUB profiler screening platform comprising >40 DUBs. […] To test engagement of the inhibitor with USP30 applied to intact cells, we assayed competition with Ub-PA (Ub-propargylamide). Ub-PA covalently binds to the USP30 active site leading to a characteristic upshift on a SDS–PAGE gel ([22]). If a drug blocks access to the catalytic site, then the probe modification is blocked and the apparent molecular weight of USP30 shifts down accordingly. […] A robust proxy read-out for target engagement is the enhancement of TOMM20 ubiquitylation after mitochondrial depolarization ([6], [16]). This second assay indicates a maximal effect with 200 nM CMPD-39 applied to RPE1-YFP-PRKN cells (Fig 1D).  Figure 1. CMPD-39 is a selective USP30 inhibitor. (A) Chemical structure of CMPD-39. (B) DUB specificity screen (DUB profiler, Ubiquigent) with 1-100 μM CMPD-39. […] Samples were incubated with CMPD-39 for 2 h at the indicated concentrations, then incubated with HA-Ub-PA probe for 10 min at 37°C and immunoblotted as shown. Red arrow indicates unbound USP30; blue arrow represents probe bound USP30. (D) Inhibition of USP30 enhances the ubiquitylation of TOMM20 in YFP-PRKN over-expressing hTERT-RPE1 cells in a concentration dependent manner in response to mitophagy induction. Cells were treated for 1 h with DMSO or antimycin A and oligomycin A (AO; 1 μM each) in the absence or presence of CMPD-39 at the indicated concentrations, lysed, and analyzed by Western blotting. Black arrow indicates unmodified TOMM20, ubiquitylated species are indicated by red (mono-ubiquitylated) or blue arrow heads. […] Source data are available for this figure.

[2] = target: USP12/UAF1/WDR20 (Homo sapiens, UniProt O75317)
Chain of USP12/UAF1/WDR20 (O75317 whole entry): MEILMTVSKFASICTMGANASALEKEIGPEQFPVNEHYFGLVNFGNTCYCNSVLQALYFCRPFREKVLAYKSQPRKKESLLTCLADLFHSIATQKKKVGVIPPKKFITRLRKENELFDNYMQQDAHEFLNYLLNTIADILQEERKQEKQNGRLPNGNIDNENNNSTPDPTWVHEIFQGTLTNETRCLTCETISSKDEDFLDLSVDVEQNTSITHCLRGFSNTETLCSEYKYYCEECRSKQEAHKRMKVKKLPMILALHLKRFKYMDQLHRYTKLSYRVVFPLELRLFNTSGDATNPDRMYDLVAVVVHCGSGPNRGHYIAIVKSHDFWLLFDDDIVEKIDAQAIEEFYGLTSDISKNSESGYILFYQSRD
Chain of USP12/UAF1/WDR20 (Q8TAF3 whole entry partner): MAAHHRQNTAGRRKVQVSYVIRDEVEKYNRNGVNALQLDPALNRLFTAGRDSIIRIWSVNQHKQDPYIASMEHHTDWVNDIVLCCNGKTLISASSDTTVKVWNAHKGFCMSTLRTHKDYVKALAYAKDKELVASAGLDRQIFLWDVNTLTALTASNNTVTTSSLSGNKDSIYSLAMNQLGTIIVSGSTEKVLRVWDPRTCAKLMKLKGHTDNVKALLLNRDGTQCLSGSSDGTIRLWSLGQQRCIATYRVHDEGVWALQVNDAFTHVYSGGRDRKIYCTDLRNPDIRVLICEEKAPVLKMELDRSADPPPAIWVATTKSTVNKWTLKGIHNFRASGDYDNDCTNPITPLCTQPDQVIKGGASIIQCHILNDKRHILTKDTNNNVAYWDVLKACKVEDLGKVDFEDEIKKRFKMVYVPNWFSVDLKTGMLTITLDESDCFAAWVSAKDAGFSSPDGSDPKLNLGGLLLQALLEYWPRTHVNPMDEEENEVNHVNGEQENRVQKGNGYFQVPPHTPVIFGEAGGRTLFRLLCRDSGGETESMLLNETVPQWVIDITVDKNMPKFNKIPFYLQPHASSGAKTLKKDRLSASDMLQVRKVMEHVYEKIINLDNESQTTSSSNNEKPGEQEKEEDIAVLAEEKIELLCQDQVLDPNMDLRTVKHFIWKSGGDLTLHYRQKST
Chain of USP12/UAF1/WDR20 (Q8TBZ3 whole entry partner): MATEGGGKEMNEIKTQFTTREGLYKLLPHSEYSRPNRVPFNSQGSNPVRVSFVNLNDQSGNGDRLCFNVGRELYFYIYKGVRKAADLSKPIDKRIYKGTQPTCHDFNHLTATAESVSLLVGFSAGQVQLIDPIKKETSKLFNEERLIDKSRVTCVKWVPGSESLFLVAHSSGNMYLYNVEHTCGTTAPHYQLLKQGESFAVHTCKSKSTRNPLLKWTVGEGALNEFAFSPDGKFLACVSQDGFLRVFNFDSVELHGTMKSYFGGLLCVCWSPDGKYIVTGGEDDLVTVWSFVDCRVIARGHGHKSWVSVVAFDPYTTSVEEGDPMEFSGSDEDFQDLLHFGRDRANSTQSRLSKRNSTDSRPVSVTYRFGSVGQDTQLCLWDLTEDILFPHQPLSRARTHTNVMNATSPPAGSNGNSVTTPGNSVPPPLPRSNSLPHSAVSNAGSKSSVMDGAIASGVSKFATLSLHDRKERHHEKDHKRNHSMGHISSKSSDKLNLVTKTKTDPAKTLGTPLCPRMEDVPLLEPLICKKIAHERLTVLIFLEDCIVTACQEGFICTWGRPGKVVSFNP
Protocol: as §1

[3] = target: T2, UCHL5 (Homo sapiens, UniProt Q9Y5K5)
T2 sequence (Q9Y5K5 1-329): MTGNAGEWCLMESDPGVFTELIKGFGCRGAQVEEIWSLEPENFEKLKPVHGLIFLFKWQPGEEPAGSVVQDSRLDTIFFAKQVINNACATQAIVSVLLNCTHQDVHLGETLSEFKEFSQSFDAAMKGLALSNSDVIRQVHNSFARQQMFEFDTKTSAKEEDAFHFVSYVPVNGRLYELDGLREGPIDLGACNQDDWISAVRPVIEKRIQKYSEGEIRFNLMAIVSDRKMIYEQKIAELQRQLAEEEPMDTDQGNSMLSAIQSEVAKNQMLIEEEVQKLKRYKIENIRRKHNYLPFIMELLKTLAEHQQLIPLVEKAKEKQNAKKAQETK
Protocol: as §1

[4] = target: T3, OTUB2 (Homo sapiens, UniProt Q96DC9)
T3 sequence (Q96DC9 1-234): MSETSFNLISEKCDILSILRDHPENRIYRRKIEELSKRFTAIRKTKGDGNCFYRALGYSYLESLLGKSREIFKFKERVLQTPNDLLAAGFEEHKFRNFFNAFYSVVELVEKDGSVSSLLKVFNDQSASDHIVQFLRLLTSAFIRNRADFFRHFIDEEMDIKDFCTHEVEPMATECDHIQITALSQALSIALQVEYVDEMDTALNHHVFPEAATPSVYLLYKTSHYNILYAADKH
Protocol: as §1

[5] = target: USP7 (Homo sapiens, UniProt Q93009)
Chain of USP7 (Q93009 whole entry): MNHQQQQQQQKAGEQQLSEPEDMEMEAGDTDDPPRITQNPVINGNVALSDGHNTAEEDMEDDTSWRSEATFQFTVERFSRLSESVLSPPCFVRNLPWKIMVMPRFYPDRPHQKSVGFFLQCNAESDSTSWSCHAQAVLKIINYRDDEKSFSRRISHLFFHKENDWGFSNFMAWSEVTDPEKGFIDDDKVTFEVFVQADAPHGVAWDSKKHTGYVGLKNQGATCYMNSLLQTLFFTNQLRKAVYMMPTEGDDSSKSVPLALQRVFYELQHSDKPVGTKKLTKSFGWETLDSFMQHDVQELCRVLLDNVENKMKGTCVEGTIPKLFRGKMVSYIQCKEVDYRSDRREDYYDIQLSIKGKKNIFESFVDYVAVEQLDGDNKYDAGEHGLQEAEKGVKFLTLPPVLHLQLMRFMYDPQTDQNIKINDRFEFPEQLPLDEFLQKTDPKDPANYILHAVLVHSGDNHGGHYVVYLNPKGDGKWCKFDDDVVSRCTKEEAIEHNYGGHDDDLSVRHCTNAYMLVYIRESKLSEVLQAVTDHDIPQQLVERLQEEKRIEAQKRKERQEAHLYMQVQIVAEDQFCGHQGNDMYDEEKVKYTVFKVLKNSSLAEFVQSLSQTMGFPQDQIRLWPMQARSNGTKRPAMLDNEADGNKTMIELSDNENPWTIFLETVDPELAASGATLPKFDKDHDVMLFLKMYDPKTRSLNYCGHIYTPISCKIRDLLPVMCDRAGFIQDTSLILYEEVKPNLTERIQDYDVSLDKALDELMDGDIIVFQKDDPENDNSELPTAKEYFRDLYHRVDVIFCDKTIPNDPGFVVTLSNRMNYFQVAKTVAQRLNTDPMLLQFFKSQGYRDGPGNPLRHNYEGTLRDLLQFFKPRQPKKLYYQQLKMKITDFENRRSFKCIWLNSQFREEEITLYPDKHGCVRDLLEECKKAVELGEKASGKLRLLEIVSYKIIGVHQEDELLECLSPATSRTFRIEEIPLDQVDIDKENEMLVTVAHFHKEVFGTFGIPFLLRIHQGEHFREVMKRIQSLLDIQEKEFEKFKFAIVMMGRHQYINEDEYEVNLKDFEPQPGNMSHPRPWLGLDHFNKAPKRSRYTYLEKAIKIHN
Protocol: as §1

remaining activity at 1 µM [1]: 108%
remaining activity at 10 µM [1]: 106%
remaining activity at 100 µM [1]: 89.9%
remaining activity at 1 µM [2]: 114%
remaining activity at 10 µM [2]: 106%
remaining activity at 100 µM [2]: 104%
remaining activity at 1 µM [3]: 107%
remaining activity at 10 µM [3]: 98%
remaining activity at 100 µM [3]: 101%
remaining activity at 1 µM [4]: 103%
remaining activity at 10 µM [4]: 97.5%
remaining activity at 100 µM [4]: 97.3%
remaining activity at 1 µM [5]: 106%
remaining activity at 10 µM [5]: 98.4%
remaining activity at 100 µM [5]: 94.1%
Compound: CC(C)(C)NS(=O)(=O)c1ccc(NC(=O)[C@H](Cc2ccccc2)NC(=O)c2ccc(F)cc2)cc1 [compound 39, CMPD-39]
